Measured values as given in publication PMC10002220, “In Vivo Reversal of P-Glycoprotein-Mediated Drug Resistance in a Breast Cancer Xenograft and in Leukemia Models Using a Novel, Potent, and Nontoxic Epicatechin EC31” (International Journal of Molecular Sciences, 2023).

System: K562 cells
Assay: EC31 efflux in K562 cells
Format: cell-based, human
Conditions: after 150 min of efflux, preincubated with 1 µM
Protocol: N = 3 independent experiments.
After incubation, the medium was removed, and cells were washed with cold PBS twice. To the cell pellet, 300 μL of acetonitrile was added. The cells were sonicated for 10 min at 50 Hz using Intertek-CD-3800(A) sonicator. The lysed cells were then spun at 14,000 rpm for 10 min at room temperature. The supernatant containing EC31 was saved and was filtered with 0.45 µm syringe filter before UPLC-MS/MS analysis. For the efflux assay, the cells were preincubated with 1 μM EC31 at 37 °C for 2.5 h. The cells were then washed with PBS, were resuspended in drug-free medium, and were further incubated at 37 °C. The cells were collected at 0, 30, 60, and 150 min, respectively. The intracellular EC31 at different time points was analyzed as described in the Section 4.9.

## COc1cc(OC)c2c(c1)O[C@H](c1ccc(OC)c(OC)c1)[C@H](OC(=O)c1ccc(F)c(NC(=O)c3cc(OC)c(OC)c(OC)c3)c1)C2 [EC31]
  EC31 remaining in cells: about 23%
